The text below walks through data of patent US7691382B2, “Antiviral polypeptides comprising tandem repeats of APOE 141-149 and variants thereof” (priority 2003, dated 2010).

Peptide text beside a SMILES is read from it.

The first assay concerns HSV1. The class given is cell-based, Human herpes simplex virus type 1.
Settings: not given
As for the experimental part:
African Green Monkey Kidney (Vero) cells were maintained in Eagle's minimum essential medium with Earle's salt (EMEM) and supplemented with 10% foetal calf serum (heat-inactivated), 4 mM L-glutamine, and 1% (v/v) nonessential amino acids, plus penicillin and streptomycin (100 IU/mg and […], respectively) (maintenance medium referred to as 10% EMEM). The cells were incubated at 37° C. in a humidified atmosphere of air with 5% CO2.
On harvesting, monolayers were washed in phosphate-buffered saline (PBS), and dislodged by incubating with trypsin in PBS for 30 min, before inactivating trypsin by addition of an equal volume of 10% EMEM and centrifuging at 500 g (5 min, 4° C.). Cell pellets were resuspended in 10% EMEM, prior to cell counting and seeding of 24-well plates. For antiviral assays, medium containing only 0.5% FCS was used (referred to as 0.5% EMEM).
Three separate passages of HSV1 virus were prepared by infecting Vero cells, and preparing semi-pure suspensions of virus from tissue culture supernatant and cell lysates, before freezing aliquots of virus at −85° C. Viral infectivity was assessed by carrying out plaque assays on serial dilutions of thawed aliquots (expressed in pfu/ml).
Peptides were obtained in lyophilised form from a commercial supplier (AltaBioscience, University of Birmingham or Advanced Biomedical), and were produced at 5 micromole scale. N-terminals were protected by addition of an acetyl group, and the C-terminals were protected by addition of an amide group.
Small quantities of peptide were weighed in sterile Eppendorf tubes, before addition of sufficient 0.5% EMEM to produce a 1.5 mM stock solution, which was frozen at −20° C. in aliquots.
Vero cells were seeded at 125,000 cells per well in 10% EMEM, and were incubated overnight resulting in confluent monolayers. […] Virus stocks (p3) were thawed, and diluted in 0.5% EMEM such that there were around 100 pfu in 100 μl. Each 24-well plate was inoculated separately. Firstly 100 μl of virus stock was added to the peptide or control medium arranged on a 96-well plate. This was incubated at 37° C. for ten minutes before inoculation. Medium was removed from four wells of a 24-well plate containing confluent Vero, and the 200 μl inoculum added to the appropriate well. Once all wells were treated, the 24-well plate was incubated for a further 60-80 minutes. Finally the peptide-containing inoculum was removed, and 1 ml of 1% EMEM containing 1% carboxymethylcellulose was added to each well. Plates were incubated for a further 22 hours or in some experiments 40 hours, before removal of overlay, and addition of 10% formaldehyde in PBS. After a further one hour incubation, fixative was removed, monolayers washed several times with tap water, and stained with carbol fuchsin solubilised in water. After 30 minutes stain was removed, and plates washed several times with tap water, before being air dried. Plaques were counted using an Olympus IX70 Inverting Microscope, and antiviral effect expressed as a percentage of the control value for each peptide concentration. The IC50 was calculated from plots of inhibitory effect against peptide concentration.
For the compound `CC(=O)N[C@@H](CCCCN)C(=O)N[C@@H](CCCNC(=N)N)C(=O)N[C@@H](CCCCN)C(=O)N[C@@H](CCCCN)C(=O)N[C@@H](CCCNC(=N)N)C(=O)N[C@@H](CCCCN)C(=O)N[C@@H](CCCNC(=N)N)C(=O)N[C@@H](CCCCN)C(=O)N[C@@H](CCCCN)C(=O)N[C@@H](CCCCN)C(=O)N[C@@H](CCCNC(=N)N)C(=O)N[C@@H](CCCCN)C(=O)N[C@@H](CCCCN)C(=O)N[C@@H](CCCNC(=N)N)C(=O)N[C@@H](CCCCN)C(=O)N[C@@H](CCCNC(=N)N)C(=O)N[C@@H](CCCCN)C(=O)N[C@@H](CCCCN)C(N)=O` [MU 18] (Ac-KRKKRKRKKKRKKRKRKK-NH2), the half-maximal inhibitory concentration (IC50) came out at 7.5 µM.

Take `CC(=O)N[C@@H](CC(C)C)C(=O)N[C@@H](CC(C)C)C(=O)N[C@@H](CCCNC(=N)N)C(=O)N[C@@H](CCCCN)C(=O)N[C@@H](CCCNC(=N)N)C(=O)N[C@@H](CC(C)C)C(=O)N[C@@H](CCCCN)C(=O)N[C@@H](CCCNC(=N)N)C(=O)N[C@@H](CC(C)C)C(=O)N[C@@H](CC(C)C)C(=O)N[C@@H](CC(C)C)C(=O)N[C@@H](CCCNC(=N)N)C(=O)N[C@@H](CCCCN)C(=O)N[C@@H](CCCNC(=N)N)C(=O)N[C@@H](CC(C)C)C(=O)N[C@@H](CCCCN)C(=O)N[C@@H](CCCNC(=N)N)C(=O)N[C@@H](CC(C)C)C(N)=O` [MU 24] (Ac-LLRKRLKRLLLRKRLKRL-NH2): inhibition was half-maximal at 40 µM (IC50).

The compound `CC(=O)N[C@@H](CC(C)C)C(=O)N[C@@H](CCCNC(=N)N)C(=O)N[C@@H](CCCNC(=N)N)C(=O)N[C@@H](CC(C)C)C(=O)N[C@@H](CCCNC(=N)N)C(=O)N[C@@H](CCCNC(=N)N)C(=O)N[C@@H](CCCNC(=N)N)C(=O)N[C@@H](CC(C)C)C(=O)N[C@@H](CC(C)C)C(=O)N[C@@H](CC(C)C)C(=O)N[C@@H](CCCNC(=N)N)C(=O)N[C@@H](CCCNC(=N)N)C(=O)N[C@@H](CC(C)C)C(=O)N[C@@H](CCCNC(=N)N)C(=O)N[C@@H](CCCNC(=N)N)C(=O)N[C@@H](CCCNC(=N)N)C(=O)N[C@@H](CC(C)C)C(=O)N[C@@H](CC(C)C)C(N)=O` [MU 38] (Ac-LRRLRRRLLLRRLRRRLL-NH2) gave a half-inhibitory concentration (IC50) above 30 µM.

For `CC(=O)N[C@@H](CC(C)C)C(=O)N[C@@H](CCCCN)C(=O)N[C@@H](CCCCN)C(=O)N[C@@H](CC(C)C)C(=O)N[C@@H](CCCCN)C(=O)N[C@@H](CCCCN)C(=O)N[C@@H](CCCCN)C(=O)N[C@@H](CC(C)C)C(=O)N[C@@H](CC(C)C)C(=O)N[C@@H](CC(C)C)C(=O)N[C@@H](CCCCN)C(=O)N[C@@H](CCCCN)C(=O)N[C@@H](CC(C)C)C(=O)N[C@@H](CCCCN)C(=O)N[C@@H](CCCCN)C(=O)N[C@@H](CCCCN)C(=O)N[C@@H](CC(C)C)C(=O)N[C@@H](CC(C)C)C(N)=O` [MU 39] (Ac-LKKLKKKLLLKKLKKKLL-NH2), the IC50 stood at 30 µM.

As to `CC(=O)N[C@@H](CC(C)C)C(=O)N[C@@H](CCCNC(=N)N)C(=O)N[C@@H](CCCCN)C(=O)N[C@@H](CC(C)C)C(=O)N1CCC[C@H]1C(=O)N[C@@H](CCCCN)C(=O)N[C@@H](CCCNC(=N)N)C(=O)N[C@@H](CC(C)C)C(=O)N[C@@H](CC(C)C)C(=O)N[C@@H](CC(C)C)C(=O)N[C@@H](CCCNC(=N)N)C(=O)N[C@@H](CCCCN)C(=O)N[C@@H](CC(C)C)C(=O)N1CCC[C@H]1C(=O)N[C@@H](CCCCN)C(=O)N[C@@H](CCCNC(=N)N)C(=O)N[C@@H](CC(C)C)C(=O)N[C@@H](CC(C)C)C(N)=O` [MU 44] (Ac-LRKLPKRLLLRKLPKRLL-NH2), the half-inhibitory concentration (IC50) is above 30 µM.

The compound `CC(=O)N[C@@H](Cc1c[nH]c2ccccc12)C(=O)N[C@@H](CCCNC(=N)N)C(=O)N[C@@H](CCCCN)C(=O)N[C@@H](Cc1c[nH]c2ccccc12)C(=O)N[C@@H](CCCNC(=N)N)C(=O)N[C@@H](CCCCN)C(=O)N[C@@H](CCCNC(=N)N)C(=O)N[C@@H](Cc1c[nH]c2ccccc12)C(=O)N[C@@H](Cc1c[nH]c2ccccc12)C(=O)N[C@@H](CCCNC(=N)N)C(=O)N[C@@H](CCCCN)C(=O)N[C@@H](Cc1c[nH]c2ccccc12)C(=O)N[C@@H](CCCNC(=N)N)C(=O)N[C@@H](CCCCN)C(=O)N[C@@H](CCCNC(=N)N)C(=O)N[C@@H](Cc1c[nH]c2ccccc12)C(=O)N[C@@H](Cc1c[nH]c2ccccc12)C(N)=O` [MU 58] (Ac-WRKWRKRWWRKWRKRWW-NH2) gave a half-inhibitory concentration (IC50) of 4.25 µM. That is a single-digit micromolar value.

Regarding `CC(=O)N[C@@H](Cc1c[nH]c2ccccc12)C(=O)N[C@@H](CCCNC(=N)N)C(=O)N[C@@H](CCCCN)C(=O)N[C@@H](Cc1c[nH]c2ccccc12)C(=O)N[C@@H](CCCNC(=N)N)C(=O)N[C@@H](CCCCN)C(=O)N[C@@H](CCCNC(=N)N)C(=O)N[C@@H](Cc1c[nH]c2ccccc12)C(=O)N[C@@H](Cc1c[nH]c2ccccc12)C(=O)N[C@@H](Cc1ccccc1)C(=O)N[C@@H](CCCNC(=N)N)C(=O)N[C@@H](CCCCN)C(=O)N[C@@H](Cc1c[nH]c2ccccc12)C(=O)N[C@@H](CCCNC(=N)N)C(=O)N[C@@H](CCCCN)C(=O)N[C@@H](CCCNC(=N)N)C(=O)N[C@@H](Cc1c[nH]c2ccccc12)C(=O)N[C@@H](Cc1c[nH]c2ccccc12)C(N)=O` [MU 60] (Ac-WRKWRKRWWFRKWRKRWW-NH2), inhibition was half-maximal at 4 µM (IC50).

Turning to `CC(=O)N[C@@H](Cc1c[nH]c2ccccc12)C(=O)N[C@@H](CCCNC(=N)N)C(=O)N[C@@H](CCCCN)C(=O)N[C@@H](Cc1c[nH]c2ccccc12)C(=O)N[C@@H](CCCNC(=N)N)C(=O)N[C@@H](CCCCN)C(=O)N[C@@H](CCCNC(=N)N)C(=O)N[C@@H](Cc1c[nH]c2ccccc12)C(=O)N[C@@H](Cc1ccccc1)C(=O)N[C@@H](Cc1ccccc1)C(=O)N[C@@H](CCCNC(=N)N)C(=O)N[C@@H](CCCCN)C(=O)N[C@@H](Cc1c[nH]c2ccccc12)C(=O)N[C@@H](CCCNC(=N)N)C(=O)N[C@@H](CCCCN)C(=O)N[C@@H](CCCNC(=N)N)C(=O)N[C@@H](Cc1ccccc1)C(=O)N[C@@H](Cc1ccccc1)C(N)=O` [MU 61] (Ac-WRKWRKRWFFRKWRKRFF-NH2), the IC50 worked out at 4.75 µM.

Consider `CC(=O)N[C@@H](Cc1c[nH]c2ccccc12)C(=O)N[C@@H](CCCNC(=N)N)C(=O)N[C@@H](CCCCN)C(=O)N[C@@H](CC(C)C)C(=O)N[C@@H](CCCNC(=N)N)C(=O)N[C@@H](CCCCN)C(=O)N[C@@H](CCCNC(=N)N)C(=O)N[C@@H](CC(C)C)C(=O)N[C@@H](CC(C)C)C(=O)N[C@@H](CC(C)C)C(=O)N[C@@H](CCCNC(=N)N)C(=O)N[C@@H](CCCCN)C(=O)N[C@@H](CC(C)C)C(=O)N[C@@H](CCCNC(=N)N)C(=O)N[C@@H](CCCCN)C(=O)N[C@@H](CCCNC(=N)N)C(=O)N[C@@H](CC(C)C)C(=O)N[C@@H](CC(C)C)C(N)=O` [MU 115] (Ac-WRKLRKRLLLRKLRKRLL-NH2), for which 17.5 µM corresponded to half-maximal inhibition (IC50).

`CC(=O)N[C@@H](Cc1c[nH]c2ccccc12)C(=O)N[C@@H](CCCNC(=N)N)C(=O)N[C@@H](CCCCN)C(=O)N[C@@H](Cc1c[nH]c2ccccc12)C(=O)N[C@@H](CCCNC(=N)N)C(=O)N[C@@H](CCCCN)C(=O)N[C@@H](Cc1ccccc1)C(=O)N[C@@H](Cc1ccccc1)C(=O)N[C@@H](Cc1ccccc1)C(=O)N[C@@H](CCCNC(=N)N)C(=O)N[C@@H](CCCCN)C(=O)N[C@@H](Cc1c[nH]c2ccccc12)C(=O)N[C@@H](CCCNC(=N)N)C(=O)N[C@@H](CCCCN)C(=O)N[C@@H](CCCNC(=N)N)C(=O)N[C@@H](Cc1c[nH]c2ccccc12)C(=O)N[C@@H](Cc1c[nH]c2ccccc12)C(N)=O` [MU 116] (Ac-WRKWRKFFFRKWRKRWW-NH2) yielded a 50% inhibitory concentration (IC50) of 3.3 µM.

`CC(=O)N[C@@H](Cc1c[nH]c2ccccc12)C(=O)N[C@@H](CCCNC(=N)N)C(=O)N[C@@H](CCCCN)C(=O)N[C@@H](Cc1c[nH]c2ccccc12)C(=O)N[C@@H](CCCNC(=N)N)C(=O)N[C@@H](CCCCN)C(=O)N[C@@H](CCCNC(=N)N)C(=O)N[C@@H](Cc1c[nH]c2ccccc12)C(=O)N[C@@H](Cc1c[nH]c2ccccc12)C(=O)N[C@@H](Cc1ccccc1)C(=O)N[C@@H](CCCNC(=N)N)C(=O)N[C@@H](CCCCN)C(=O)N[C@@H](Cc1ccccc1)C(=O)N[C@@H](CCCNC(=N)N)C(=O)N[C@@H](CCCCN)C(=O)N[C@@H](CCCNC(=N)N)C(=O)N[C@@H](Cc1ccccc1)C(=O)N[C@@H](Cc1ccccc1)C(N)=O` [MU 117] (Ac-WRKWRKRWWFRKFRKRFF-NH2) registered a half-maximal inhibitory concentration (IC50) of 3.3 µM.

Staying with this assay, now noted: Examples 2 and 3.
On to ARKARKRAAARKARKRAA [GIN 39], for which the “efficacy for reducing HSV1 infectivity (in words)” value was “abolished antiviral activity”.

Turning to RLLLRKLRKRLL [GIN 3], the “efficacy for reducing HSV1 infectivity (in words)” value was “no, or poor, efficacy”.

Staying with this assay, now noted: HSV1, Vero cells, Table 4 (Example 2).
On to RLLLRKLRKRLL [GIN 3], for which the “Apparent IC50” value was “No”.
